From patent US20180099931A1 (AbbVie S.à.r.l., priority 2016, published 2018)
Read-outs that look alike come from different tables or passages of the source.

Biological target: T1, F508delCFTR (Homo sapiens, UniProt P13569, DEL508-508)
T1 construct: expressed in transfected cells; host or cells: CFBE41o- human lung-derived epithelial cells (CFBE4lo-F508delCFTR-HRP), doxycycline-inducible
Test: Cell Surface Expression-Horse Radish Peroxidase (CSE-HRP) Assay;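 for Maximum % activity (with co-corrector): co-corrector and positive control are both the same reference corrector at 2 µM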;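 for Maximum % activity (without co-corrector): percent of the 2 µM on-plate positive control corrector response above DMSO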
Format: cell-based
Settings: for Maximum % activity (with co-corrector) / Emax: maximum at any tested concentration, normalized to on-plate positive control; for Emax: read-out: Maximum % activity (without co-corrector)

[1] = test compound without co-corrector, read-out: EC50 (without co-corrector)
[2] = with co-corrector (2 μM of 3-[(2R,4R)-4-({[1-(2,2-difluoro-1,3-benzodioxol-5-yl)cyclopropyl]carbonyl}amino)-7-methoxy-3,4-dihydro-2H-chromen-2-yl]benzoic acid), read-out: EC50 (with co-corrector)
[3] = CSE-HRP, test compound without co-corrector, read-out: EC50 (without co-corrector)
[4] = CSE-HRP, with co-corrector (2 μM of 3-[(2R,4R)-4-({[1-(2,2-difluoro-1,3-benzodioxol-5-yl)cyclopropyl]carbonyl}amino)-7-methoxy-3,4-dihydro-2H-chromen-2-yl]benzoic acid), read-out: EC50 (with co-corrector)
[5] = CSE-HRP, with co-corrector (2 μM)
[6] = test compound without co-corrector
[7] = with co-corrector (2 μM of 3-[(2R,4R)-4-({[1-(2,2-difluoro-1,3-benzodioxol-5-yl)cyclopropyl]carbonyl}amino)-7-methoxy-3,4-dihydro-2H-chromen-2-yl]benzoic acid)

T1 sequence (P13569 with tags, fused parts or gaps DEL508-508): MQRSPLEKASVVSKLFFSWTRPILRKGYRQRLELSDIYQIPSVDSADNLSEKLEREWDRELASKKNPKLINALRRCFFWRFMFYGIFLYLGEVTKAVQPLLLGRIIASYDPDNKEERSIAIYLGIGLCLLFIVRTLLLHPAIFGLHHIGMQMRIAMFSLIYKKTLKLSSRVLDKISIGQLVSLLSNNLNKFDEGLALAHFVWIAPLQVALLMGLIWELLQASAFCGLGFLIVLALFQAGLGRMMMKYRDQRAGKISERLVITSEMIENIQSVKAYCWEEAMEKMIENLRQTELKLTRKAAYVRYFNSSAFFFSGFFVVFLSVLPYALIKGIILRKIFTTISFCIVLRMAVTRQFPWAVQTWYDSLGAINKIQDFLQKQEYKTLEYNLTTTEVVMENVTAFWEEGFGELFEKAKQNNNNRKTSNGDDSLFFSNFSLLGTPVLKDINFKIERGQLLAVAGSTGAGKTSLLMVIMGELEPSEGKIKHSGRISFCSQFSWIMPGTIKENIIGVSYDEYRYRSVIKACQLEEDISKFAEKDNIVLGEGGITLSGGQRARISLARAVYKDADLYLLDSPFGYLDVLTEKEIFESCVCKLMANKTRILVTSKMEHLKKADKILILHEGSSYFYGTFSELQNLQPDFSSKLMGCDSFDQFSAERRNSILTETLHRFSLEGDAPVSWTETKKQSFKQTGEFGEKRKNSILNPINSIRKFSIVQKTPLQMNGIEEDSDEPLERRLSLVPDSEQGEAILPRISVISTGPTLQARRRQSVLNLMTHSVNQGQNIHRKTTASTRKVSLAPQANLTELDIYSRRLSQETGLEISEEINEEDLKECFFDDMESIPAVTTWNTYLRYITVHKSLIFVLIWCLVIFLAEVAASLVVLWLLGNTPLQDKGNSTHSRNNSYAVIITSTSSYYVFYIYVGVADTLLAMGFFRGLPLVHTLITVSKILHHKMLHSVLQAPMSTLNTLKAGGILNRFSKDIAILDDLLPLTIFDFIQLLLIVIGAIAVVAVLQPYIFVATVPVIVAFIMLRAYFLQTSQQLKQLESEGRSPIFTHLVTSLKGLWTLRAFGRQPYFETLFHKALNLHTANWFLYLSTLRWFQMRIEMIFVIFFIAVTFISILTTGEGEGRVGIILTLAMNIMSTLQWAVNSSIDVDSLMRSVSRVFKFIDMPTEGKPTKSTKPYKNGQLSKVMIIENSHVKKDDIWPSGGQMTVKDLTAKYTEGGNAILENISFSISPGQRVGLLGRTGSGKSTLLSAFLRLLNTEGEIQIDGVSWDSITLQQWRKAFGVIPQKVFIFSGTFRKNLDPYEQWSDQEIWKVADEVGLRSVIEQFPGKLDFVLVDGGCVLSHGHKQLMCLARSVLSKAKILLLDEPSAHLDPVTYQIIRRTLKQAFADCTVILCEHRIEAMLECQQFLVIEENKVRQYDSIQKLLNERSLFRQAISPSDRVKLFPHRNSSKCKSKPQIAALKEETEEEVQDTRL

EC50 [1] | EC50 [2] | Maximum % activity (with co-corrector) (with co-corrector (2 μM)) | Emax (without co-corrector) | EC50 [3] | EC50 [4] | Maximum % activity (with co-corrector) [5] | Emax (CSE-HRP, without co-corrector) | Emax [6] | Maximum % activity (with co-corrector) [7] | Maximum % activity (with co-corrector) (with co-corrector (2 μM of 3-[(2R,4R)-4-({[1-(2,2-difluoro-1,3-benzodioxol-5-yl)cyclopropyl]carbonyl}amino)-7-methoxy-3,4-dihydro-2H-chromen-2-yl]benzoic acid), 2 µM) | Structure (SMILES)
1000 to 10000 nM | 1000 to 10000 nM | +++ (≥350) | > 200% |  |  |  |  |  |  |  | COc1ccc(C(C)(C)C)cc1CN[C@H]1[C@H](C(C)(C)C)[C@@H](C(=O)O)N(C(=O)OC(C)C)[C@H]1c1cccnc1N1CCC1 [Example 99, (2S,3S,4S,5S)-5-[2-(azetidin-1-yl)pyridin-3-yl]-3-tert-butyl-4-{[(5-tert-butyl-2-methoxyphenyl)methyl]amino}-1-{[(propan-2-yl)oxy]carbonyl}pyrrolidine-2-carboxylic acid]
 |  |  |  | 1000 to 10000 nM | 1000 to 10000 nM | +++ (≥350) | 100 to 200% |  |  |  | COc1cc(C(F)(F)F)ccc1CN[C@H]1[C@H](C(C)(C)C)[C@@H](C(=O)O)N(C(=O)C2CCCO2)[C@H]1c1ccccc1 (mixture of isomers) [II-60]
1000 to 10000 nM | 1000 to 10000 nM | +++ (≥350) | > 200% |  |  |  |  |  |  |  | COc1ccc(C(C)(C)C)cc1CN[C@H]1[C@H](C(C)(C)C)[C@@H](C(=O)O)N(C(=O)CC2(O)CCCC2)[C@H]1c1ccccc1 [Example I-99]
 |  |  |  | 1000 to 10000 nM | 1000 to 10000 nM | +++ (≥350) | 100 to 200% |  |  |  | COc1ccc(C2(C)CCC2)cc1CN[C@H]1[C@H](C(C)(C)C)[C@@H](C(=O)O)N(C(=O)C2CCC2)[C@H]1c1ccccc1C(F)(F)F [Example I-279]
 |  |  |  | 1000 to 10000 nM | 1000 to 10000 nM | +++ (≥350) | < 100% |  |  |  | CCOc1ccc(Cl)cc1CN[C@@H]1[C@@H](C(C)(C)C)[C@H](C(=O)O)N(C(=O)C2CCCCC2)[C@@H]1c1ccccc1 (racemic) [II-9]
> 10000 nM | 1000 to 10000 nM |  |  |  |  |  |  | < 100% | ++ (≥150 and <350) |  | COCCn1cc(C(F)(F)F)cc(CN[C@H]2[C@H](C(C)(C)C)[C@@H](C(=O)O)N(C(=O)C3CCCCC3)[C@H]2c2ccccc2)c1=O (racemic) [III-65]
1000 to 10000 nM | 1000 to 10000 nM |  |  |  |  |  |  | < 100% | ++ (≥150 and <350) |  | Cc1cc(C(F)(F)F)cc(N[C@H]2C(c3ccccc3)N(C(=O)N(C(C)C)C(C)C)[C@@H](C(=O)O)[C@@H]2C2CC2)n1 (mixture of isomers) [III-47]
1000 to 10000 nM | 1000 to 10000 nM |  |  |  |  |  |  | 100 to 200% | +++ (≥350) |  | COc1ccc(C(C)(C)C)cc1CN[C@H]1[C@H](C(C)(C)C)[C@@H](C(=O)O)N(C(=O)c2cc(C)n(C)n2)[C@H]1c1ccccc1 [II-445]
 |  |  |  | 1000 to 10000 nM | 1000 to 10000 nM | ++ (≥150 and <350) | < 100% |  |  |  | COc1ccc(C(F)(F)F)cc1CN[C@H]1[C@H](C(C)(C)C)[C@@H](C(=O)O)N(S(=O)(=O)c2ccccc2)[C@H]1c1ccccc1 [II-155]
< 1000 nM | < 1000 nM |  |  |  |  |  |  | > 200% | +++ (≥350) |  | COc1ccc(C(C)(C)C)cc1CN[C@H]1[C@H](C(C)(C)C)[C@@H](C(=O)O)N(C(=O)C(C)Sc2ccccc2)[C@H]1c1ccccc1 (stereo partly drawn) [II-325]
1000 to 10000 nM | 1000 to 10000 nM | +++ (≥350) | 100 to 200% |  |  |  |  |  |  |  | COc1ccc(C(C)(C)C)cc1CN[C@H]1[C@H](C(C)(C)C)[C@@H](C(=O)O)N(C(=O)c2cnn(C(C)(C)C)c2C(C)C)[C@H]1c1ccccc1 [Example I-145]
 |  |  |  | < 1000 nM | 1000 to 10000 nM | ++ (≥150 and <350) | < 100% |  |  |  | COc1ccc(CN[C@H]2[C@H](C(C)(C)C)[C@@H](C(=O)O)N(C(=O)C3CCCCC3)[C@H]2c2ccccc2)c(C(F)(F)F)c1 [II-109]
1000 to 10000 nM | < 1000 nM |  |  |  |  |  |  | > 200% | +++ (≥350) |  | COc1ccc(C(C)(C)C)cc1CN[C@H]1[C@H](C(C)(C)C)[C@@H](C(=O)O)N(C(=O)c2cnn(-c3ccccc3)c2C)[C@H]1c1ccccc1 [II-361]
1000 to 10000 nM | 1000 to 10000 nM |  |  |  |  |  |  | < 100% | ++ (≥150 and <350) |  | COc1cccc([C@@H]2[C@H](Nc3cc(C(F)(F)F)cc(C)n3)[C@@H](C(C)(C)C)[C@H](C(=O)O)N2C(=O)C2C3COCC32)n1 (mixture of isomers) [III-62]
1000 to 10000 nM | 1000 to 10000 nM |  |  |  |  |  |  | > 200% | +++ (≥350) |  | COc1ccc(C2(C)CCC2)cc1CN[C@H]1[C@H](C(C)(C)C)[C@@H](C(=O)O)N(C(=O)[C@@H]2CCCCO2)[C@H]1c1ccccc1F [II-546]
1000 to 10000 nM | 1000 to 10000 nM |  |  |  |  |  |  | 100 to 200% |  | +++ (≥350) | COc1ccc(C(C)(C)C)cc1CN[C@H]1[C@H](C(C)(C)C)[C@@H](C(=O)O)N(C(=O)C2CCc3ccc(F)cc3O2)[C@H]1c1cccnc1N(C)C (single isomer, unassigned) [II-452]
> 10000 nM | 1000 to 10000 nM |  |  |  |  |  |  | < 100% | ++ (≥150 and <350) |  | COc1cccc([C@H]2[C@@H](Nc3cccc(OC(F)F)n3)[C@H](C(C)(C)C)[C@@H](C(=O)O)N2C(=O)C2(C)CCCOC2)n1 (mixture of isomers) [III-76]
1000 to 10000 nM | 1000 to 10000 nM | +++ (≥350) | 100 to 200% |  |  |  |  |  |  |  | COc1ccc(C(C)(C)C)cc1CN[C@H]1[C@H](C(C)(C)C)[C@@H](C(=O)O)N(C(=O)[C@H]2CCCCO2)[C@H]1c1ccccc1F [Example 50, (2S,3S,4S,5S)-3-tert-butyl-4-{[(5-tert-butyl-2-methoxyphenyl)methyl]amino}-5-(2-fluorophenyl)-1-[(2R)-oxane-2-carbonyl]pyrrolidine-2-carboxylic acid]
1000 to 10000 nM | < 1000 nM | +++ (≥350) | 100 to 200% |  |  |  |  |  |  |  | COc1ccc(C(C)(C)C)cc1CN[C@H]1[C@H](C(C)(C)C)[C@@H](C(=O)O)N(C(=O)[C@H]2[C@H](C(F)(F)F)[C@H]3CC[C@@H]2O3)[C@H]1c1ccccc1OC(F)F (relative stereo) [Example I-223]
1000 to 10000 nM | 1000 to 10000 nM | +++ (≥350) | > 200% |  |  |  |  |  |  |  | COc1ncc(C2CCCC2)cc1CN[C@H]1[C@H](C(C)(C)C)[C@@H](C(=O)O)N(C(=O)C2CCCCC2)[C@H]1c1cccnc1N(C)C [Example I-132]
1000 to 10000 nM | 1000 to 10000 nM |  |  |  |  |  |  | > 200% | +++ (≥350) |  | COc1nc(C(C)(C)C)ccc1CN[C@H]1[C@H](C(C)(C)C)[C@@H](C(=O)O)N(C(=O)[C@H]2CCC[C@@H](OC)C2)[C@H]1c1ccccc1 (relative stereo) [II-456]
< 1000 nM | < 1000 nM | +++ (≥350) | > 200% |  |  |  |  |  |  |  | CCC(CC)Cc1cnc(OC)c(CN[C@H]2[C@H](C(C)(C)C)[C@@H](C(=O)O)N(C(=O)C3CCCCC3)[C@H]2c2ccccc2)c1 [Example I-74]
< 1000 nM | < 1000 nM |  |  |  |  |  |  | 100 to 200% | +++ (≥350) |  | COc1ncc(-c2ccc(C)cc2)cc1CN[C@H]1[C@H](C(C)(C)C)[C@@H](C(=O)O)N(C(=O)C2CCCCC2)[C@H]1c1ccccc1 [II-347]
1000 to 10000 nM | < 1000 nM |  |  |  |  |  |  | 100 to 200% | +++ (≥350) |  | COc1ncc(C(F)(F)F)cc1CN[C@H]1[C@H](C(C)(C)C)[C@@H](C(=O)O)N(C(=O)[C@@H]2CCCC(F)(F)C2)[C@H]1c1cccnc1OC [II-572]
